# Paper PMC11983343, “Synthesis of Thiazole-methylsulfonyl Derivatives, X-ray Study, and Investigation of Their Carbonic Anhydrase Activities: In Vitro and In Silico Potentials” (ACS Omega, 2025)
# Columns and labels:
# hCA I = target: T1, hCA I (Homo sapiens, UniProt P00915); experiment: Carbonic anhydrase I inhibition assay (esterase method, p-nitrophenyl acetate, 348 nm); format: biochemical; details: hCA I purified from human erythrocytes
# T1 construct: hCA I and hCA II isoenzymes purified from human erythrocytes under in vitro conditions; from tissue; host or cells: human erythrocytes
# Text: (§1) The esterase method was used to investigate the effects of the molecule on hCA isoenzymes.[44] This method is based on the activity of hCA for the hydrolysis of p-nitrophenyl acetate as a substrate for the reaction mechanism of p-nitrophenol or p-nitrophenolate. […] Since p-nitrophenyl acetate has very little absorption at this wavelength, it will be used as a blank. The p-nitrophenyl acetate substrate solution used in the experiments will be prepared daily.[45],[46]
# (§2) Then, the cuvette content containing enzymes, unlike the blank cuvette, was prepared according to Table 1 and placed in the spectrophotometer device. […] Then, molecules at different concentrations were added one by one, the absorbances at 0 and 3 min were measured again, and their differences were taken.[45],[46] […] The enzyme activity values obtained were converted to % activity, their graphs were drawn according to the different concentrations of the molecules, and the IC50 value, that is, the concentration of molecules that reduced the enzyme activity by half, was found. The values were interpreted.
# (§3) For the inhibition study, five different inhibitor concentrations of molecules were used at a fixed substrate concentration, and the inhibitor concentration (IC50) values that reduced the enzyme’s activity by half were determined by drawing % activity–[I] graphs.
# hCA II = target: T2, hCA II (Homo sapiens, UniProt P00918); experiment: Carbonic anhydrase II inhibition assay (esterase method, p-nitrophenyl acetate, 348 nm); format: biochemical; details: hCA II purified from human erythrocytes
# T2 construct: hCA I and hCA II isoenzymes purified from human erythrocytes under in vitro conditions; from tissue; host or cells: human erythrocytes
# Text: as §1, §2, §3
# T1 sequence (P00915 whole entry): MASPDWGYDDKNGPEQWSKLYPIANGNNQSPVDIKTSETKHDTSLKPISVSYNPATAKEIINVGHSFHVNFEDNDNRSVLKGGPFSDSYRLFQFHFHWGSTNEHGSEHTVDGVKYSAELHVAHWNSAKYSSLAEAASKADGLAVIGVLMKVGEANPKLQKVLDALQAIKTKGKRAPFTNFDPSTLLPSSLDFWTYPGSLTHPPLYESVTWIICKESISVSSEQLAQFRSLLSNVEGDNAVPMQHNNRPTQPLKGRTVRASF
SMILES,IC50 (hCA I) [µM],IC50 (hCA II) [µM]
"CC(=NNc1nc(-c2ccc([N+](=O)[O-])cc2)cs1)c1ccc(S(C)(=O)=O)cc1 [2a, 2-(2-(1-(4-(Methylsulfonyl)phenyl)ethylidene)hydrazinyl)-4-(4-nitrophenyl)thiazole]",39.4,70
"COc1ccc(-c2csc(NN=C(C)c3ccc(S(C)(=O)=O)cc3)n2)cc1 [2b, 2-(2-(1-(4-(Methylsulfonyl)phenyl)ethylidene)hydrazinyl)-4-(4-methoxyphenyl)thiazole]",59.8,76.2
"CC(=NNc1nc(-c2ccc(C#N)cc2)cs1)c1ccc(S(C)(=O)=O)cc1 [2c, 2-(2-(1-(4-(Methylsulfonyl)phenyl)ethylidene)hydrazinyl)-4-(4-cyanophenyl)thiazole]",63,39.2
"CC(=NNc1nc(-c2ccc(F)cc2)cs1)c1ccc(S(C)(=O)=O)cc1 [2d, 2-(2-(1-(4-(Methylsulfonyl)phenyl)ethylidene)hydrazinyl)-4-(4-fluorophenyl)thiazole]",103,54.1
"CC(=NNc1nc(-c2ccc(-c3ccccc3)cc2)cs1)c1ccc(S(C)(=O)=O)cc1 [2e, 4-([1,1′-Biphenyl]-4-yl)-2-(2-(1-(4-(methylsulfonyl)phenyl)ethylidene)hydrazinyl)thiazole]",77.9,40.5
"CC(=NNc1nc(-c2ccc(Br)cc2)cs1)c1ccc(S(C)(=O)=O)cc1 [2f, 2-(2-(1-(4-(Methylsulfonyl)phenyl)ethylidene)hydrazinyl)-4-(4-bromophenyl)thiazole]",133,51.3

# Results, then the compound that gave them:
IC50 (hCA I) [µM],IC50 (hCA II) [µM],SMILES
198,78.8,"CC(=NNc1nc(-c2ccc(C)cc2)cs1)c1ccc(S(C)(=O)=O)cc1 [2g, 2-(2-(1-(4-(Methylsulfonyl)phenyl)ethylidene)hydrazinyl)-4-(4-methylphenyl)thiazole]"
60.8,38.5,"CC(=NNc1nc(-c2ccc(Cl)c(Cl)c2)cs1)c1ccc(S(C)(=O)=O)cc1 [2h, 2-(2-(1-(4-(Methylsulfonyl)phenyl)ethylidene)hydrazinyl)-4-(3,4-dichlorophenyl)thiazole]"
52.9,86.6,"CC(=NNc1nc(-c2ccc(F)cc2F)cs1)c1ccc(S(C)(=O)=O)cc1 [2i, 2-(2-(1-(4-(Methylsulfonyl)phenyl)ethylidene)hydrazinyl)-4-(2,4-difluorophenyl)thiazole]"
80.6,64.8,"CC(=NNc1nc(-c2cccc([N+](=O)[O-])c2)cs1)c1ccc(S(C)(=O)=O)cc1 [2j, 2-(2-(1-(4-(Methylsulfonyl)phenyl)ethylidene)hydrazinyl)-4-(3-nitrophenyl)thiazole]"
58.7,86.6,"CC(=NNc1nc(-c2ccc(Cl)cc2)cs1)c1ccc(S(C)(=O)=O)cc1 [2k, 2-(2-(1-(4-(Methylsulfonyl)phenyl)ethylidene)hydrazinyl)-4-(4-chlorophenyl) thiazole]"
67.9,71.5,"CC(=NNc1nc(-c2ccc(Cl)cc2Cl)cs1)c1ccc(S(C)(=O)=O)cc1 [2l, 2-(2-(1-(4-(Methylsulfonyl)phenyl)ethylidene)hydrazinyl)-4-(2,4-dichlorophenyl)thiazole]"
44.4,53.3,"CC(=NNc1nc(-c2ccccc2)cs1)c1ccc(S(C)(=O)=O)cc1 [2m, 2-(2-(1-(4-(Methylsulfonyl)phenyl)ethylidene)hydrazinyl)-4-phenylthiazole]"
